Key:
[1] = target: KRAS G12V (Homo sapiens, UniProt P01116, G12V); test: GDP-GTP exchange assay (bodipy-GDP/GppNHp, SOS1), KRAS G12V; assay type: biochemical; settings: KRAS G12V mutant; value for the most potent isomer quoted for certain compounds; read-out: G12V (KRAS G12V exchange assay IC50)
Protocol: (§1) The inhibitor potency of the exemplified compounds was determined in a fluorescence based guanine nucleotide exchange assay, which measures the exchange of bodipy-GDP (fluorescently labeled GOP) for GppNHp (Non-hydrolyzable GTP analog) to generate the active state of KRAS in the presence of SOS1 (guanine nucleotide exchange factor). Inhibitors were serially diluted in DMSO and a volume of 0.1 μL was transferred to the wells of a black low volume 384-well plate. 5 μL/well volume of bodipy-loaded KRAS G12D diluted to 2.5 nM in assay buffer (25 mM Hepes pH 7.5, 50 mM NaCl, 10 mM MgCl2 and 0.01% Brij-35) was added to the plate and pre-incubated with inhibitor for 4 h at r.t. Appropriate controls (enzyme with no inhibitor or with a G12D inhibitor) were included on the plate. The exchange was initiated by the addition of a 5 μL/well volume containing 1 mM GppNHp and 300 nM SOS1 in assay buffer. The 10 μL/well reaction concentration of the bodipy-loaded KRAS G12D, GppNHp, and SOS1 were 2.5 nM, 500 μM, and 150 nM, respectively. The reaction plates were incubated at r.t. for 2 h, a time estimated for complete GDP-GTP exchange in the absence of inhibitor. For the KRAS G12V mutant, similar guanine nucleotide exchange assays were used with 2.5 nM as final concentration for the bodipy loaded KRAS proteins and 3 h incubation after adding GppNHp-SOS1 mixture. A cyclic peptide described to selectively bind G12D mutant (Sakamoto et al., BBRC 484.3 (2017), 605-611) or internal compounds with confirmed binding were used as positive controls in the assay plates. Fluorescence intensities were measured on a PheraStar plate reader instrument (BMG Labtech) with excitation at 485 nm and emission at 520 nm.
(§2) Either GraphPad prism or Genedata Screener SmartFit was used to analyze the data. The IC50 values were derived by fitting the data to a four parameter logistic equation producing a sigmoidal dose-response curve with a variable Hill coefficient.
(§3) The symbol “†” indicates IC50≤100 nM, “††” indicates IC50>100 nM but ≤1 μM; and “†††” indicates IC50 is >1 μM but ≤5 μM, “††††” indicates IC50 is >5 μM but ≤10 μM. “NA” indicates IC50 not available.

[2] = target: KRAS G12D (Homo sapiens, UniProt P01116, G12D); test: GDP-GTP exchange assay (bodipy-GDP/GppNHp, SOS1), KRAS G12D; assay type: biochemical; settings: bodipy-loaded KRAS G12D 2.5 nM, 4 h pre-incubation; value for the most potent isomer quoted for certain compounds; read-out: G12D (KRAS G12D exchange assay IC50)
KRAS G12D, sequence (P01116 1-188 isoform P01116-2 G12D): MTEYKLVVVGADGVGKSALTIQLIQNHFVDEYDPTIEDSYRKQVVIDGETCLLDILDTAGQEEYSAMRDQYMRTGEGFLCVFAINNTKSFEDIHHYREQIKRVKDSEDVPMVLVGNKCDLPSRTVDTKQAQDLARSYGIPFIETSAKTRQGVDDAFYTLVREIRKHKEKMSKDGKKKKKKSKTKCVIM
Protocol: as §1, §2, §3

KRAS G12V, sequence (P01116 1-188 isoform P01116-2 G12V): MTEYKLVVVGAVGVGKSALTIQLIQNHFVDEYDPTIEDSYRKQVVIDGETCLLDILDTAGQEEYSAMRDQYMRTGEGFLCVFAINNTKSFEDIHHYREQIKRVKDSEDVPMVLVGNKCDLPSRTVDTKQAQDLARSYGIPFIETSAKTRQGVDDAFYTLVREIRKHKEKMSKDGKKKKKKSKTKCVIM

| SMILES | IC50 [1] | IC50 [2] |
| --- | --- | --- |
| Cc1nc2c(F)c(-c3cccc(Cl)c3Cl)c(CCC#N)cc2c2c1cc([C@H]1C[C@H](OC[C@@H]3CCCC[C@H]3C#N)CN1C(=O)C1CC1)n2[C@H]1[C@H]2CN[C@@H]1C2 [Example 285] | ≤ 0.1 µM | ≤ 0.1 µM |
| COc1ccnc(O[C@H]2C[C@H](c3cc4c(C)nc5c(F)c(-c6cccc(Cl)c6Cl)c(CCC#N)cc5c4n3[C@H]3[C@H]4CN[C@@H]3C4)N(C(=O)C3CC3)C2)n1 [Example 247] | ≤ 0.1 µM | ≤ 0.1 µM |
| Cc1nc2c(F)c(-c3cccc(Cl)c3Cl)c(CCC#N)cc2c2c1cc([C@H]1C[C@H](OC[C@H]3CCOC3)CN1C(=O)C1CC1)n2[C@H]1[C@H]2CN[C@@H]1C2 [Example 372] | ≤ 0.1 µM | ≤ 0.1 µM |
| Cc1nc2c(F)c(-c3cccc(Cl)c3Cl)c(CCC#N)cc2c2c1cc([C@H]1C[C@H](n3nnc(-c4ccccc4)n3)CN1C(=O)C1CC1)n2[C@H]1[C@H]2CN[C@@H]1C2 [Example 399] | ≤ 0.1 µM | ≤ 0.1 µM |
| Cc1nc2c(F)c(-c3cccc(Cl)c3Cl)c(CCC#N)cc2c2c1cc([C@H]1C[C@H](OC[C@@H]3CCCN3)CN1C(=O)C1CC1)n2[C@H]1[C@H]2CN[C@@H]1C2 [Example 449] | ≤ 0.1 µM | ≤ 0.1 µM |
| Cc1nc2c(F)c(-c3cccc(Cl)c3Cl)c(CCC#N)cc2c2c1cc([C@H]1C[C@H](Oc3cccnc3N3CCOCC3)CN1C(=O)C1CC1)n2[C@H]1[C@H]2CN[C@@H]1C2 [Example 284] | ≤ 0.1 µM | ≤ 0.1 µM |
| Cc1nc2c(F)c(-c3cccc(Cl)c3Cl)c(CCC#N)cc2c2c1cc([C@H]1C[C@H](Oc3cnn(CC(F)F)c3)CN1C(=O)C1CC1)n2[C@H]1[C@H]2CN[C@@H]1C2 [Example 377] | ≤ 0.1 µM | ≤ 0.1 µM |
| COc1ccc(O[C@H]2C[C@H](c3cc4c(C)nc5c(F)c(-c6cccc(Cl)c6Cl)c(CCC#N)cc5c4n3[C@H]3[C@H]4CN[C@@H]3C4)N(C(=O)C3CC3)C2)cn1 [Example 301] | ≤ 0.1 µM | ≤ 0.1 µM |
| Cc1nc2c(F)c(-c3cccc(Cl)c3Cl)c(CCC#N)cc2c2c1cc([C@H]1C[C@H](Oc3cccnc3OCC(F)(F)F)CN1C(=O)C1CC1)n2[C@H]1[C@H]2CN[C@@H]1C2 [Example 446] | ≤ 0.1 µM | ≤ 0.1 µM |
| Cc1nc2c(F)c(-c3cccc(Cl)c3Cl)c(CCC#N)cc2c2c1cc([C@H]1C[C@H](Oc3ccn(C)c3C(F)(F)F)CN1C(=O)C1CC1)n2[C@H]1[C@H]2CN[C@@H]1C2 [Example 407] | ≤ 0.1 µM | ≤ 0.1 µM |
| Cc1nc2c(F)c(-c3cccc(Cl)c3Cl)c(CCC#N)cc2c2c1cc([C@H]1C[C@H](OCc3ncco3)CN1C(=O)C1CC1)n2[C@H]1[C@H]2CN[C@@H]1C2 [Example 104] | 0.1 to 1 µM | ≤ 0.1 µM |
| Cc1nc2c(F)c(-c3cccc(Cl)c3Cl)c(CCC#N)cc2c2c1cc([C@H]1C[C@H](n3cnc(C4CC4)n3)CN1C(=O)C1CC1)n2[C@H]1[C@H]2CN[C@@H]1C2 [Example 278] | ≤ 0.1 µM | ≤ 0.1 µM |
| N#CCCc1cc2c(nc(C3=CCOCC3)c3cc([C@H]4C[C@H](OCc5c(F)cccc5F)CN4C(=O)C4CC4)n([C@H]4[C@H]5CN[C@@H]4C5)c32)c(F)c1-c1cccc(Cl)c1Cl [Example 218] | ≤ 0.1 µM | ≤ 0.1 µM |
| CO[C@@H]1CC[C@@H](O[C@H]2C[C@H](c3cc4c(C)nc5c(F)c(-c6cccc(Cl)c6Cl)c(CCC#N)cc5c4n3[C@H]3[C@H]4CN[C@@H]3C4)N(C(=O)C3CC3)C2)C1 [Example 440] | ≤ 0.1 µM | ≤ 0.1 µM |
| Cc1nc(CO[C@H]2C[C@H](c3cc4c(C)nc5c(F)c(-c6cccc(Cl)c6Cl)c(CCC#N)cc5c4n3[C@H]3[C@H]4CN[C@@H]3C4)N(C(=O)C3CC3)C2)sc1C [Example 358] | ≤ 0.1 µM | ≤ 0.1 µM |
| Cc1nc2c(F)c(-c3cccc(Cl)c3Cl)c(CCC#N)cc2c2c1cc([C@H]1C[C@H](OCC3CC(F)(F)C3)CN1C(=O)C1CC1)n2[C@H]1[C@H]2CN[C@@H]1C2 [Example 445] | ≤ 0.1 µM | ≤ 0.1 µM |
| Cc1nc2c(F)c(-c3cccc(Cl)c3Cl)c(CCC#N)cc2c2c1cc([C@H]1C[C@H](Oc3cccc(C(F)(F)F)c3)CN1C(=O)C1CC1)n2[C@H]1[C@H]2CN[C@@H]1C2 [Example 172] | ≤ 0.1 µM | ≤ 0.1 µM |
| Cc1nc2c(F)c(-c3cccc(Cl)c3Cl)c(CCC#N)cc2c2c1cc([C@H]1C[C@H](n3cc4c(n3)CCC4)CN1C(=O)C1CC1)n2[C@H]1[C@H]2CN[C@@H]1C2 [Example 356] | ≤ 0.1 µM | ≤ 0.1 µM |
| [2H]C([2H])(O[C@H]1C[C@H](c2cc3c(C)nc4c(F)c(-c5cccc(Cl)c5Cl)c(CCC#N)cc4c3n2[C@H]2[C@H]3CN[C@@H]2C3)N(C(=O)C2CC2)C1)c1cc(C)sn1 [Example 229] | ≤ 0.1 µM | ≤ 0.1 µM |
| N#CCCc1cc2c(nc(-c3ccc(N4CCCC4=O)nc3)c3cc([C@H]4C[C@H](OCc5c(F)cccc5F)CN4C(=O)C4CC4)n([C@H]4[C@H]5CN[C@@H]4C5)c32)c(F)c1-c1cccc(Cl)c1Cl [Example 207] | ≤ 0.1 µM | 0.1 to 1 µM |
| COc1cc(F)cc(O[C@H]2C[C@H](c3cc4c(C)nc5c(F)c(-c6cccc(Cl)c6Cl)c(CCC#N)cc5c4n3[C@H]3[C@H]4CN[C@@H]3C4)N(C(=O)C3CC3)C2)c1 [Example 190] | ≤ 0.1 µM | ≤ 0.1 µM |

The next lines start with the values.

| IC50 [1] | IC50 [2] | SMILES |
| --- | --- | --- |
| ≤ 0.1 µM | ≤ 0.1 µM | Cc1nc2c(F)c(-c3cccc(Cl)c3Cl)c(CCC#N)cc2c2c1cc([C@H]1C[C@H](Oc3cccnc3C#N)CN1C(=O)C1CC1)n2[C@H]1[C@H]2CN[C@@H]1C2 [Example 294] |
| ≤ 0.1 µM | ≤ 0.1 µM | CC(O)c1nc2c(F)c(-c3cccc(Cl)c3Cl)c(CCC#N)cc2c2c1cc([C@H]1C[C@H](OCC3(C#N)CC3)CN1C(=O)C1CC1)n2[C@H]1[C@H]2CN[C@@H]1C2 (some centres unmarked) [Example 404] |
| ≤ 0.1 µM | ≤ 0.1 µM | CCc1cnn([C@H]2C[C@H](c3cc4c(C)nc5c(F)c(-c6cccc(Cl)c6Cl)c(CCC#N)cc5c4n3[C@H]3[C@H]4CN[C@@H]3C4)N(C(=O)C3CC3)C2)c1 [Example 280] |
| ≤ 0.1 µM | ≤ 0.1 µM | Cc1nc2c(F)c(-c3cccc(Cl)c3Cl)c(CCC#N)cc2c2c1cc([C@H]1C[C@H](OCc3cocn3)CN1C(=O)C1CC1)n2[C@H]1[C@H]2CN[C@@H]1C2 [Example 112] |
| ≤ 0.1 µM | ≤ 0.1 µM | Cc1cc(C)cc(CO[C@H]2C[C@H](c3cc4c(C)nc5c(F)c(-c6cccc(Cl)c6Cl)c(CCC#N)cc5c4n3[C@H]3[C@H]4CN[C@@H]3C4)N(C(=O)C3CC3)C2)c1 [Example 123] |
| ≤ 0.1 µM | ≤ 0.1 µM | Cc1nc2c(F)c(-c3cccc(Cl)c3Cl)c(CCC#N)cc2c2c1cc([C@H]1C[C@H](OCc3ccnc(C(F)(F)F)c3)CN1C(=O)C1CC1)n2[C@H]1[C@H]2CN[C@@H]1C2 [Example 259] |
| ≤ 0.1 µM | ≤ 0.1 µM | Cc1nc2c(F)c(-c3cccc(Cl)c3Cl)c(CCC#N)cc2c2c1cc([C@H]1C[C@H](O[C@@H](C)c3ccccn3)[C@@H](C)N1C(=O)C1CC1)n2[C@H]1[C@H]2CN[C@@H]1C2 [Example 245] |
| ≤ 0.1 µM | ≤ 0.1 µM | COc1nccc(C#N)c1O[C@H]1C[C@H](c2cc3c(C)nc4c(F)c(-c5cccc(Cl)c5Cl)c(CCC#N)cc4c3n2[C@H]2[C@H]3CN[C@@H]2C3)N(C(=O)C2CC2)C1 [Example 298] |
| ≤ 0.1 µM | ≤ 0.1 µM | CCOc1ncccc1O[C@H]1C[C@H](c2cc3c(C)nc4c(F)c(-c5cccc(Cl)c5Cl)c(CCC#N)cc4c3n2[C@H]2[C@H]3CN[C@@H]2C3)N(C(=O)C2CC2)C1 [Example 443] |
| ≤ 0.1 µM | ≤ 0.1 µM | Cc1nc2c(F)c(-c3cccc(Cl)c3Cl)c(CCC#N)cc2c2c1cc([C@H]1C[C@H](Oc3cnn(C(F)(F)F)c3)CN1C(=O)C1CC1)n2[C@H]1[C@H]2CN[C@@H]1C2 [Example 374] |
| ≤ 0.1 µM | ≤ 0.1 µM | Cc1nc2c(F)c(-c3cccc(Cl)c3Cl)c(CCC#N)cc2c2c1cc([C@H]1C[C@H](OC3CCC(O)CC3)CN1C(=O)C1CC1)n2[C@H]1[C@H]2CN[C@@H]1C2 (some centres unmarked) [Example 336] |
| ≤ 0.1 µM | ≤ 0.1 µM | Cc1nc2c(F)c(-c3cccc(Cl)c3Cl)c(CCC#N)cc2c2c1cc([C@H]1C[C@H](Oc3nccc4ccccc34)CN1C(=O)C1CC1)n2[C@H]1[C@H]2CN[C@@H]1C2 [Example 131] |
| ≤ 0.1 µM | ≤ 0.1 µM | Cc1nc2c(F)c(-c3cccc(Cl)c3Cl)c(CCC#N)cc2c2c1cc([C@H]1C[C@H](O[C@H](C)c3ccccn3)[C@@H](C)N1C(=O)C1CC1)n2[C@H]1[C@H]2CN[C@@H]1C2 [Example 244] |

Reference: patent publication US20240390340A1 (INCYTE CORPORATION, priority 2023, published 2024)
